From ChEMBL document CHEMBL4004854, “Pyrrolo[3',2':6,7]cyclohepta[1,2-b]pyridines with potent photo-antiproliferative activity” (Eur J Med Chem, 2017)
pEC50: −log10 of the molar value. Active and inactive are the calls of the source. No cut-off for these calls is given here.

Key:
MCF7 [1] = assay: Induction of mitochondrial dysfunction in human MCF7 cells at 2 uM under dark condition measured after 0.33 to 2 hrs by mitotracker orange CMTM-ROS/LCS1 dye based confocal microscopic method; format: cell-based; conditions: mcf7, 2 µM
Jurkat [2] = assay: Phototoxicity against human Jurkat cells assessed as reduction in cell viability preincubated for 30 mins followed by 1.25 J/cm2 UV light irradiation measured after 48 hrs by MTT assay; format: functional, cell-based; conditions: light or radiation study
K562 [3] = assay: Phototoxicity against human K562 cells assessed as reduction in cell viability preincubated for 30 mins followed by 1.25 J/cm2 UV light irradiation measured after 48 hrs by MTT assay; format: functional, cell-based; conditions: K562, light or radiation study
MCF7 [4] = assay: Induction of lysosomal activation in human MCF7 cells at 2 uM upon UV light irradiation measured up to 2 hrs by lysotracker green DND26 dye based confocal microscopic method; format: functional, cell-based
[5] = Dark toxicity against human Jurkat cells assessed as reduction in cell viability after 72 hrs by MTT assay; format: cell-based
[6] = Dark toxicity against human MCF7 cells assessed as reduction in cell viability after 72 hrs by MTT assay; format: cell-based
MCF7 [7] = assay: Induction of apoptosis in human MCF7 cells assessed as live cells at 20 uM upon UV light irradiation measured after 24 hrs by Annexin V-FITC/propidium iodide staining based flow cytometry (reference value: 72%); format: functional
MCF7 [8] = assay: Induction of apoptosis in human MCF7 cells assessed as apoptotic cells at 20 uM upon UV light irradiation measured after 24 hrs by Annexin V-FITC/propidium iodide staining based flow cytometry (reference value: 22%); format: functional
MCF7 [9] = assay: Induction of lysosomal activation in human MCF7 cells at 2 uM under dark condition measured up to 2 hrs by lysotracker green DND26 dye based confocal microscopic method; format: cell-based; conditions: mcf7, 2 h
[10] = Dark toxicity against human K562 cells assessed as reduction in cell viability after 72 hrs by MTT assay; format: cell-based
MCF7 [11] = assay: Induction of ROS generation in human MCF7 cells up to 4 uM measured after 2 hrs under dark condition by H2DCFDA staining based fluorescence assay; format: cell-based; conditions: mcf7, 2 h
MCF7 [12] = assay: Phototoxicity against human MCF7 cells assessed as reduction in cell viability preincubated for 30 mins followed by 1.25 J/cm2 UV light irradiation measured after 48 hrs by MTT assay; format: functional, cell-based; conditions: MCF7, light or radiation study
MCF7 [13] = assay: Induction of mitochondrial dysfunction in human MCF7 cells at 2 uM upon UV light irradiation measured after 0.33 to 2 hrs by mitotracker orange CMTM-ROS/LCS1 dye based confocal microscopic method; format: functional, cell-based
MCF7 [14] = assay: Induction of mitochondrial dysfunction in human MCF7 cells assessed as mild swelling at 2 uM upon UV light irradiation measured after 0.33 to 2 hrs by mitotracker orange CMTM-ROS/LCS1 dye based confocal microscopic method; format: functional, cell-based
[15] = Drug metabolism in aqueous acetonitrile solution assessed as by-product formation at 2.3 10^-5M upon light irradiation by UV-absorption method; format: physicochemical; conditions: buffer
Jurkat [16] = assay: Phototoxic index, ratio of CC50 for human Jurkat cells under dark condition to EC50 for human Jurkat cells under UV light irradiated condition
MCF7 [17] = assay: Induction of lysosomal membrane impairment in human MCF7 cells at 2 uM upon UV light irradiation measured up to 2 hrs by lysotracker green DND26 dye based confocal microscopic method; format: functional, cell-based
MCF7 [18] = assay: Induction of ROS generation in human MCF7 cells up to 4 uM preincubated for 30 mins followed by UV light irradiation measured after 2 hrs in presence of 200 to 500 nM antioxidant NAC by H2DCFDA staining based fluorescence assay; format: functional, cell-based
Jurkat [19] = assay: Phototoxicity against human Jurkat cells assessed as cell viability at 0.075 uM preincubated for 30 mins followed by 2.5 J/cm2 UV light irradiation measured after 72 hrs in presence of vitamin E by MTT assay relative to control; format: functional; conditions: light or radiation study, read-out: Activity
MCF7 [20] = assay: Induction of mitochondrial dysfunction in human MCF7 cells assessed as organelle fusion at 2 uM upon UV light irradiation measured after 0.33 to 2 hrs by mitotracker orange CMTM-ROS/LCS1 dye based confocal microscopic method; format: functional, cell-based
MCF7 [21] = assay: Induction of apoptosis in human MCF7 cells assessed as apoptotic cells at 0.7 uM upon UV light irradiation measured after 24 hrs by Annexin V-FITC/propidium iodide staining based flow cytometry (reference value: 22%); format: functional
[22] = Induction of singlet oxygen photogeneration in aqueous acetonitrile solution of ADPA assessed as photobleaching of anthracene absorption upon 150 Watt mercury light irradiation at 2.3 10^-5M at 400 nanometer measured up to 100 mins
[23] = Induction of singlet oxygen photogeneration in aqueous acetonitrile solution of ADPA assessed as photobleaching of anthracene absorption upon 150 Watt mercury light irradiation at 2.3 10^-5M at 400 nanometer measured up to 100 mins by ferrioxalate actinometry
MCF7 [24] = assay: Induction of mitochondrial dysfunction in human MCF7 cells assessed as perinuclear clustering at 2 uM upon UV light irradiation measured after 0.33 to 2 hrs by mitotracker orange CMTM-ROS/LCS1 dye based confocal microscopic method; format: functional, cell-based
[25] = Singlet oxygen sensitizing activity in aqueous acetonitrile solution irradiated with nanosecond laser flash photolysis assessed as lowest triplet-excited state by measuring short lived transient life time at 10^-4 M at 520 nanometer under argon saturated condition by spectroscopic method
Jurkat [26] = assay: Induction of lipid peroxidation in human Jurkat cells upon 2.5 J/cm2 UV light irradiation measured after 24 hrs by TBARS assay; format: functional, cell-based
Escherichia coli [27] = assay: Induction of Escherichia coli pBR322 DNA oxidative damage at 40 uM upon 7.5 J/cm2 UV-A light irradiation in presence of endonuclease-3 by ethidium bromide staining based electrophoresis
[28] = Drug metabolism in aqueous acetonitrile solution assessed as by-product formation at 2.3 10^-5M upon light irradiation by HPLC analysis; format: physicochemical; conditions: buffer
[29] = Singlet oxygen sensitizing activity in aqueous acetonitrile solution irradiated with nanosecond laser flash photolysis assessed as lowest triplet-excited state by measuring long lived transient life time at 10^-4 M at 440 nanometer by spectroscopic method
[30] = Singlet oxygen sensitizing activity in aqueous acetonitrile solution irradiated with nanosecond laser flash photolysis assessed as lowest triplet-excited state by measuring short lived transient life time at 10^-4 M at 520 nanometer under air equilibrated condition by spectroscopic method
Escherichia coli [31] = assay: Induction of Escherichia coli pBR322 DNA single strand break assessed as open circular form DNA bands at 10 to 40 uM upon 7.5 J/cm2 UV-A light irradiation by ethidium bromide staining based UV transillumination assay
MCF7 [32] = assay: Phototoxic index, ratio of CC50 for human MCF7 cells under dark condition to EC50 for human MCF7 cells under UV light irradiated condition
MCF7 [33] = assay: Induction of apoptosis in human MCF7 cells assessed as caspase-3 activation at 0.25 to 0.5 uM upon 2.5 J/cm2 UV light irradiation measured after 24 hrs by Western blot method; format: functional, cell-based
MCF7 [34] = assay: Induction of ROS generation in human MCF7 cells at 4 uM preincubated for 30 mins followed by UV light irradiation measured after 2 hrs by H2DCFDA staining based fluorescence assay relative to control; format: functional
[35] = Singlet oxygen sensitizing activity in aqueous acetonitrile solution irradiated with nanosecond laser flash photolysis assessed as lowest triplet-excited state by measuring short lived transient life time at 10^-4 M at 520 nanometer under oxygen saturated condition by spectroscopic method
Jurkat [36] = assay: Phototoxicity against human Jurkat cells assessed as cell viability at 0.075 uM preincubated for 30 mins followed by 2.5 J/cm2 UV light irradiation measured after 72 hrs in presence of hydroxyl radical scavenger DMTU by MTT assay relative to control; format: functional; conditions: light or radiation study, read-out: Activity
MCF7 [37] = assay: Induction of apoptosis in human MCF7 cells assessed as tBID activation at 0.25 to 0.5 uM upon 2.5 J/cm2 UV light irradiation measured after 24 hrs by Western blot method; format: functional, cell-based
K562 [38] = assay: Phototoxic index, ratio of CC50 for human K562 cells under dark condition to EC50 for human K562 cells under UV light irradiated condition
Escherichia coli [39] = assay: Induction of Escherichia coli pBR322 DNA oxidative damage at 40 uM upon 7.5 J/cm2 UV-A light irradiation in presence of Fpg by ethidium bromide staining based electrophoresis
Escherichia coli [40] = assay: Induction of Escherichia coli pBR322 DNA double strand break assessed as linear form DNA bands at 10 to 40 uM upon 7.5 J/cm2 UV-A light irradiation by ethidium bromide staining based UV transillumination assay
MCF7 [41] = assay: Induction of apoptosis in human MCF7 cells assessed as necrotic cells at 0.7 uM upon UV light irradiation measured after 24 hrs by Annexin V-FITC/propidium iodide staining based flow cytometry relative to control; format: functional
[42] = Singlet oxygen sensitizing activity in aqueous acetonitrile solution irradiated with nanosecond laser flash photolysis assessed as lowest triplet-excited state by measuring short lived transient life time at 10^-4 M at 520 nanometer by spectroscopic method

With `Cn1ccc2c1-c1c(cc(S(=O)(=O)c3ccccc3)c(=O)n1C)CCC2` the Activity (MCF7 [1]) was “Non-Toxic”, the pEC50 (Jurkat [2]) was under 4.70 and the pEC50 (K562 [3]) was under 4.70. For the same compound, the Activity (MCF7 [4]) was “inactive”, the CC50 at 72 h [5] was over 20 µM and the CC50 at 72 h [6] was over 20 µM. For the same compound, the Activity (MCF7 [7]) was 66%, the Activity (MCF7 [8]) was 25% and the Activity (MCF7 [9]) was “Non-Toxic”. The CC50 at 72 h [10] was over 20 µM, the Activity (MCF7 [11]) was “Non-Toxic” and the pEC50 (MCF7 [12]) was under 4.70. The Activity (MCF7 [13]) was “inactive”.

For `CCOC(=O)c1cc2c(n1Cc1ccc(OC)cc1)-c1[nH]c(=O)c(S(=O)(=O)c3ccccc3)cc1CCC2`, the Activity (MCF7 [1]) was “Non-Toxic”, the pEC50 (Jurkat [2]) was 6.68 and the pEC50 (K562 [3]) was 6.55. The Activity (MCF7 [14]) was “Active”, the Activity (MCF7 [4]) was “Active” and the Drug metabolism [15] was “Metabolite_Notdetected”. For the same compound, the CC50 at 72 h [5] was over 20 µM, the “Ratio CC50/EC50” value (Jurkat [16]) was over 95.24 and the Activity (MCF7 [17]) was “Active”. For the same compound, the Activity (MCF7 [18]) was “inactive”, the CC50 at 72 h [6] was over 20 µM and the viability at 0.075 µM (Jurkat [19]) was 80 to 90%. For the same compound, the Activity (MCF7 [20]) was “Active”, the Activity (MCF7 [21]) was 36% and the Activity [22] was “Active”. The Activity [23] was “Active”, the Activity (MCF7 [24]) was “Active” and the Time [25] was 3.2 microsec. For the same compound, the Activity (Jurkat [26]) was “Dose-dependent effect”, the Activity (Escherichia coli [27]) was “Active” and the Drug metabolism [28] was “Metabolite_Notdetected”. For the same compound, the Time [29] was over 30 microsec, the Time [30] was 1.2 microsec and the Activity (Escherichia coli [31]) was “inactive”. For the same compound, the “Ratio CC50/EC50” value (MCF7 [32]) was over 28.53, the Activity (MCF7 [33]) was “Active” and the Activity (MCF7 [34]) was “<=150%”. The Time [35] was 0.7 microsec, the viability at 0.075 µM (Jurkat [36]) was 80 to 90% and the CC50 at 72 h [10] was over 20 µM. For the same compound, the Activity (MCF7 [37]) was “Active”, the “Ratio CC50/EC50” value (K562 [38]) was over 71.43 and the Activity (Escherichia coli [39]) was “Active”. The pEC50 (MCF7 [12]) was 6.15, the Activity (Escherichia coli [40]) was “inactive” and the Activity (MCF7 [41]) was 18%. The Time [42] was under 3.2 microsec.
